≈ marks a conversion by molar mass, not a printed value.
Experiments:
Format in all cases: functional
[1] = system: Mycobacterium tuberculosis; assay: Antitubercular activity against isoniazid and rifampicin resistant Mycobacterium tuberculosis isolate 4 assessed as growth inhibition
[2] = system: Mycobacterium tuberculosis; assay: Antitubercular activity against isoniazid, streptomycin, ethionamide, ethambutol and rifampicin resistant Mycobacterium tuberculosis isolate 7 assessed as growth inhibition
[3] = system: Mycobacterium tuberculosis; assay: Antitubercular activity against isoniazid and ethionamide resistant Mycobacterium tuberculosis isolate 2 assessed as growth inhibition
[4] = system: Mycobacterium tuberculosis; assay: Antitubercular activity against isoniazid, streptomycin and ethionamide resistant Mycobacterium tuberculosis isolate 6 assessed as growth inhibition
[5] = system: Mycobacterium tuberculosis; assay: Antitubercular activity against isoniazid, streptomycin, ethionamide, ethambutol, rifampicin and ofloxacin resistant Mycobacterium tuberculosis isolate 8 assessed as growth inhibition
[6] = system: Mycobacterium tuberculosis; assay: Antitubercular activity against isoniazid, streptomycin and rifampicin resistant Mycobacterium tuberculosis isolate 3 assessed as growth inhibition
[7] = system: Mycobacterium tuberculosis; assay: Antitubercular activity against isoniazid, streptomycin, ethionamide and ethambutol resistant Mycobacterium tuberculosis isolate 1 assessed as growth inhibition
[8] = system: Mycobacterium tuberculosis; assay: Antitubercular activity against isoniazid and ethionamide resistant Mycobacterium tuberculosis isolate 5 assessed as growth inhibition

CCOC(=O)c1nc(C2CCCCC2)sc1-c1ccc(C#N)cc1
MIC [1]: 4 µg/mL (≈ 11.7 µM) | MIC [2]: 16 µg/mL (≈ 47 µM) | MIC [3]: 8 µg/mL (≈ 23.5 µM) | MIC [4]: 8 µg/mL (≈ 23.5 µM) | MIC [5]: > 32 µg/mL | MIC [6]: 16 µg/mL (≈ 47 µM) | MIC [7]: 8 µg/mL (≈ 23.5 µM) | MIC [8]: 8 µg/mL (≈ 23.5 µM)

— ChEMBL document CHEMBL4364263, “Synthesis and biological evaluation of 2,4,5-trisubstituted thiazoles as antituberculosis agents effective against drug-resistant tuberculosis” (Eur J Med Chem, 2019)
